Source: ChEMBL document CHEMBL1126979, “Studies toward structure-activity relationships of taxol: synthesis and cytotoxicity of taxol analogues with C-2 modified phenylisoserine side chains” (Bioorg Med Chem Lett, 1993)

Test system: HCT-116
Assay: Compound was evaluated by a cytotoxicity assay in HCT116 human colon carcinoma cell line
Format: functional, cell-based

Row | SMILES | IC50
1 | CC(=O)O[C@H]1C(=O)[C@@]2(C)C([C@H](OC(=O)c3ccccc3)[C@]3(O)C[C@H](OC(=O)[C@H](F)[C@@H](NC(=O)c4ccccc4)c4ccccc4)C(C)=C1C3(C)C)[C@]1(OC(C)=O)CO[C@@H]1C[C@@H]2O (some centres undefined) | 475 nM
2 | CO[C@@H](C(=O)O[C@H]1C[C@@]2(O)[C@@H](OC(=O)c3ccccc3)C3[C@](C)(C(=O)[C@H](OC(C)=O)C(=C1C)C2(C)C)[C@@H](O)C[C@H]1OC[C@@]31OC(C)=O)[C@@H](NC(=O)c1ccccc1)c1ccccc1 (some centres undefined) | 866 nM
3 | CC(=O)O[C@H]1C(=O)[C@@]2(C)C([C@H](OC(=O)c3ccccc3)[C@]3(O)C[C@H](OC(=O)C[C@@H](NC(=O)c4ccccc4)c4ccccc4)C(C)=C1C3(C)C)[C@]1(OC(C)=O)CO[C@@H]1C[C@@H]2O (some centres undefined) | 297 nM
4 | CC(=O)O[C@H]1C(=O)[C@@]2(C)[C@H]([C@H](OC(=O)c3ccccc3)[C@]3(O)C[C@H](OC(=O)[C@H](O)[C@@H](NC(=O)c4ccccc4)c4ccccc4)C(C)=C1C3(C)C)[C@]1(OC(C)=O)CO[C@@H]1C[C@@H]2O [PACLITAXEL] | 4 nM
